# From US20260256934A1, “ANTIBODY-DRUG CONJUGATE INCLUDING MUTANT Fc REGION” (DAIICHI SANKYO COMPANY, LIMITED, priority 2022, published 2026)
# Assays:
# [1] = target: T1, human AQ mutant (Hu-AQ) STING C-terminal binding domain protein (Homo sapiens, UniProt Q86WV6, G230A/H232R/R293Q); test: Thermal shift assay with recombinant STING C-terminal binding domain protein (Hu-AQ); details: test compound 0.5 mM; Tm minus Tm of well without compound
# T1 construct: made in house; host or cells: E. coli Rosetta 2 (DE3), co-expressed with BirA
# T1 sequence (Q86WV6 with tags, fused parts or gaps G230A/H232R/R293Q): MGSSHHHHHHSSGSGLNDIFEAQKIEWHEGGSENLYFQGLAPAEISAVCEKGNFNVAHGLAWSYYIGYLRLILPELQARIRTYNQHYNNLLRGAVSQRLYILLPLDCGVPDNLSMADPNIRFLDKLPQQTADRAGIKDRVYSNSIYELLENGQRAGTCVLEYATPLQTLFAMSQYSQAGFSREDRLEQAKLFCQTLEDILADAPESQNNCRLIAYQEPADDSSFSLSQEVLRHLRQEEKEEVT
# Protocol: (§1) Each expression strain was added to TB broth containing 100 μg/mL ampicillin, 50 μg/mL streptomycin, and 30 μg/mL kanamycin, and cultured at 37° C. Expression was then induced with 100 µM IPTG, and the cells were further cultured at 16° C.
# (§2) The culture broth was centrifuged, and the obtained bacteria were frozen and thawed. The proteins were extracted by sonication, and the supernatant was collected by centrifugation. The resulting supernatant was purified through a HisTrap FF column (GE Healthcare) using an AKTAexpress chromatography system (GE Healthcare, IL, US), made to pass through a Superdex200 16/60 column (GE Healthcare), and eluted.
# (§3) The binding of a compound to each STING C-terminal binding domain protein was determined by a thermal shift assay, which uses the increase in the thermal denaturation temperature of the protein as an indicator.
# (§4) Specifically, each test compound (final concentration 0.5 mM), SYPRO Orange (final concentration: 20×concentration), and the STING protein were mixed in a 384-well real-time PCR plate using a plate shaker. […] Tm (the midpoint of the unfolding transition) (° C.) was determined as the temperature at which the rate of increase in fluorescence intensity reached its maximum value. The shift of Tm by the test compound was calculated as ΔTm (° C.) by subtracting, from the Tm value of each compound, the Tm value of the well without the compound.
# [2] = target: T2, human REF mutant (Hu-REF) STING C-terminal binding domain protein (Homo sapiens, UniProt Q86WV6); test: Thermal shift assay with recombinant STING C-terminal binding domain protein (Hu-REF); details: test compound 0.5 mM; Tm minus Tm of well without compound
# T2 construct: made in house; host or cells: E. coli Rosetta 2 (DE3), co-expressed with BirA
# T2 sequence (Q86WV6 with tags, fused parts or gaps, change not shown): as the sequence (Q86WV6 with tags, fused parts or gaps G230A/H232R/R293Q) above, with A131G, R133H, Q194R counted along it
# Protocol: as §1, §2, §3, §4
# [3] = target: T3, human wild-type (Hu-WT) STING C-terminal binding domain protein (Homo sapiens, UniProt Q86WV6, H232R); test: Thermal shift assay with recombinant STING C-terminal binding domain protein (Hu-WT); details: test compound 0.5 mM; Tm minus Tm of well without compound
# T3 construct: made in house; host or cells: E. coli Rosetta 2 (DE3), co-expressed with BirA
# T3 sequence (Q86WV6 with tags, fused parts or gaps H232R): as the sequence (Q86WV6 with tags, fused parts or gaps G230A/H232R/R293Q) above, with A131G, Q194R counted along it
# Protocol: as §1, §2, §3, §4
# [4] = target: T4, mouse wild type (Ms-WT) STING C-terminal binding domain protein (Mus musculus, UniProt Q3TBT3); test: Thermal shift assay with recombinant STING C-terminal binding domain protein (Ms-WT); details: test compound 0.5 mM; Tm minus Tm of well without compound
# T4 construct: made in house; host or cells: E. coli Rosetta 2 (DE3), co-expressed with BirA
# T4 sequence (Q3TBT3 with tags, fused parts or gaps): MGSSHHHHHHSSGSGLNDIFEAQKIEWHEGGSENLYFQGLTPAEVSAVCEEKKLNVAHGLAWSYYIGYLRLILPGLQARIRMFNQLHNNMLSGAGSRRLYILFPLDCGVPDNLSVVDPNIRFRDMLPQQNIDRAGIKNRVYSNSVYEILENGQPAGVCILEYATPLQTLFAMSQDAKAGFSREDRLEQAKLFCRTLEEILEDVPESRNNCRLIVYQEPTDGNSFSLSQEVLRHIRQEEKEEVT
# Protocol: as §1, §2, §3
# Specifically, each test compound (final concentration 0.5 mM), SYPRO Orange (final concentration: 20×concentration), and the STING protein were mixed in a 384-well real-time PCR plate using a plate shaker. A real-time PCR system was used to increase the temperature from 25° C. to 95° C. at a rate of 0.03° C. per second, and the thermal denaturation temperature of the protein was measured using the fluorescence emitted by SYPRO Orange as an indicator. Tm (the midpoint of the unfolding transition) (° C.) was determined as the temperature at which the rate of increase in fluorescence intensity reached its maximum value. The shift of Tm by the test compound was calculated as ΔTm (° C.) by subtracting, from the Tm value of each compound, the Tm value of the well without the compound.
# human FcγRI = target: T5, human FcγRI (Homo sapiens, UniProt P12314); test: Human FcγRI binding activity by SPR (Biacore T200); details: anti-EGFR antibodies as analyte, 0.3-4.7 μM; His-tagged FcγRI captured
# T5 construct: purchased R&D systems
# T5 sequence (P12314 16-374): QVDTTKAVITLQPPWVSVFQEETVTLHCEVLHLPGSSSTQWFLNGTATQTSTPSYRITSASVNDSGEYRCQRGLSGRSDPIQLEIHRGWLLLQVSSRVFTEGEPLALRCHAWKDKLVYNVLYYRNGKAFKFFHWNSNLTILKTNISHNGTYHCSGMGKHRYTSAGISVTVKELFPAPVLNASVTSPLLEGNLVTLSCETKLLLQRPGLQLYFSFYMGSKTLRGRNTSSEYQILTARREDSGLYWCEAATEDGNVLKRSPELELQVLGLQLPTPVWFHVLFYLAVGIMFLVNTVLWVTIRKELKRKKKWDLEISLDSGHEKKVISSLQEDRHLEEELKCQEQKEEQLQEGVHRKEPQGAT
# Protocol: Anti-EGFR antibodies with various introduced effector-less mutations were evaluated for their binding activity against human FcγRI using Biacore T200 (Cytiva). […] The anti-EGFR antibody B used in the Test Example was obtained as HBS-EP+ solution by subjecting commercially available Vectibix Intravenous Infusion (Takeda Pharmaceuticals) (100 mg/5 mL) to buffer exchange using Amicon Ultra-15 Centrifugal Filter Unit (50K, produced by Merck). The binding activity was determined by allowing His-tagged human FcγRI to be captured as a ligand onto an anti-His antibody-immobilized sensor chip, then adding each anti-EGFR antibody as an analyte to the sensor chip, and measuring the interaction between the ligand and the analyte by Surface Plasmon Resonance (SPR). Anti-6× His tag antibody [AD1.1.10] (abcam) was immobilized onto Sensor Chip CM5 (Cytiva) according to the instructions of the kit. Recombinant Human Fc gamma RI/CD64 Protein (R&D systems) prepared at 10 μg/mL with HBS-EP+(GE Healthcare) was contacted with the sensor chip for 60 sec at 10 μL/min and thereby captured. Then, the anti-EGFR antibody prepared at each concentration with HBS-EP+ was added to the sensor chip for 120 sec at a flow rate of 30 μL/min.
# human FcγRIIIb = target: T6, human FcγRIIIb (Homo sapiens, UniProt O75015); test: Human FcγRIIIb binding activity by SPR; details: anti-EGFR antibodies as analyte, 0.9-4.7 μM
# T6 construct: purchased R&D systems
# T6 sequence (O75015 17-200): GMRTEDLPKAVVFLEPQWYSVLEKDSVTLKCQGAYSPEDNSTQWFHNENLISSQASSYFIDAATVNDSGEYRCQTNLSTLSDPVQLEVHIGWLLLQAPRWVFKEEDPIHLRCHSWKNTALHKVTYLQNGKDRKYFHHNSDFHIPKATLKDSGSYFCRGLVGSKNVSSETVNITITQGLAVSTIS
# Protocol: (§5) The binding activity was determined by directly immobilizing human FcγR as a ligand onto a sensor chip, then adding each anti-EGFR antibody as an analyte to the sensor chip, and measuring the interaction between the ligand and the analyte by SPR. Recombinant Human Fc gammaRIIA/CD32a (R167) Protein (R&D systems) was immobilized as human FcγRIIa onto Sensor Chip CM5 according to the instructions of the kit. Then, the anti-EGFR antibody prepared at each concentration with HBS-EP+ was added to the sensor chip for 120 sec at a flow rate of 30 μL/min.
# Recombinant Human Fc gamma RIIIB/CD16b Protein (R&D systems) was used as human FcγRIIIb.
# human FcγRIIIa = target: T7, human FcγRIIIa (Homo sapiens, UniProt P08637); test: Human FcγRIIIa binding activity by SPR; details: anti-EGFR antibodies as analyte, 0.9-4.7 μM
# T7 construct: purchased R&D systems
# T7 sequence (P08637 17-254): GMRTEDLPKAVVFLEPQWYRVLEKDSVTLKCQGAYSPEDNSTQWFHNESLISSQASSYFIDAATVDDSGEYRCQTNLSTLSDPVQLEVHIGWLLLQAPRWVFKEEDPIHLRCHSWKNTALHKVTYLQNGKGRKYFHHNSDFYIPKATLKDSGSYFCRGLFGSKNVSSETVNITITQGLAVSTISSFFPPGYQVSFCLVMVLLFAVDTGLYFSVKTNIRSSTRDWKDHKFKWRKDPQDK
# Protocol: as §5
# Recombinant Human Fc gamma RIIIA/CD16a protein (R&D systems) was used as human FcγRIIIa.
# human FcγRIIb/c = target: T8, human FcγRIIb/c (Homo sapiens, UniProt P31994); test: Human FcγRIIb/c binding activity by SPR; details: anti-EGFR antibodies as analyte, 0.9-4.7 μM
# T8 construct: purchased R&D systems
# T8 sequence (P31994 43-310): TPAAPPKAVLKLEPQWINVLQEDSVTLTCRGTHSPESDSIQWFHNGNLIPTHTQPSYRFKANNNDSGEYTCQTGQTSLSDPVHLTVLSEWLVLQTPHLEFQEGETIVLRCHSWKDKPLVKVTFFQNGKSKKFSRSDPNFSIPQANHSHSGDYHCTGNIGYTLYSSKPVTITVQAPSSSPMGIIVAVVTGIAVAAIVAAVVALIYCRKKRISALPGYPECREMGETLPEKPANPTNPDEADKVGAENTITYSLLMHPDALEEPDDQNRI
# Protocol: as §5
# Recombinant Human Fc gamma RIIB/C (CD32b/c) Protein (R&D systems) was used as human FcγRIIb/c.
ΔTm (° C.) Hu-AQ [1],ΔTm (° C.) Hu-REF [2],ΔTm (° C.) Hu-WT [3],ΔTm (° C.) Ms-WT [4],Compound,other results
17.8 °C,7.3 °C,14.0 °C,15.8 °C,"O=c1c2ncn([C@@H]3O[C@@H]4COP(=O)(S)O[C@H]5[C@@H](F)[C@H](n6cc7c8c(ncnc86)SCCC7)O[C@@H]5COP(=O)(S)O[C@@H]3[C@@H]4O)c2ncn1CCO (single isomer, unassigned) [Compound 48b]",–
10.8 °C,4.4 °C,9.2 °C,12.3 °C,"O=c1c2ncn([C@@H]3O[C@@H]4COP(=O)(O)O[C@H]5[C@@H](F)[C@H](n6cc7c8c(ncnc86)NCCC7)O[C@@H]5COP(=O)(S)O[C@@H]3[C@@H]4O)c2ncn1CCO (single isomer, unassigned) [Compound 52b]",–
14.3 °C,6.2 °C,11.4 °C,17.0 °C,"O=c1c2ncn([C@@H]3O[C@@H]4COP(=O)(S)O[C@H]5[C@@H](F)[C@H](n6cc7c8c(ncnc86)NCCC7)O[C@@H]5COP(=O)(S)O[C@@H]3[C@@H]4F)c2ncn1CCO (single isomer, unassigned) [Compound 44b]",–

# More lines, now with the values behind:
Compound,ΔTm (° C.) Hu-AQ [1],ΔTm (° C.) Hu-REF [2],ΔTm (° C.) Hu-WT [3],ΔTm (° C.) Ms-WT [4],other results
"IgG2: IgG2-type anti-EGFR antibody, commercially available Vectibix Intravenous Infusion; heavy chain SEQ ID NO: 35",–,–,–,–,RU value indicating binding to human FcγRI (rank order) (human FcγRI): IgG1 WT>>LALA>>IgG2>LALA-DG; RU value indicating binding to human FcγRIIIb (rank order) (human FcγRIIIb): IgG1 WT>LALA≈IgG2≈LALA-DG; RU value indicating binding to human FcγRIIIa (rank order) (human FcγRIIIa): IgG1 WT>LALA>IgG2>LALA-DG; RU value indicating binding to human FcγRIIb/c (rank order) (human FcγRIIb/c): IgG1 WT>IgG2>LALA>LALA-DG
"O=c1c2ncn([C@@H]3O[C@@H]4COP(=O)(S)O[C@H]5[C@@H](O)[C@H](n6cc7c8c(ncnc86)NCCC7)O[C@@H]5COP(=O)(S)O[C@@H]3[C@@H]4F)c2ncn1CCO (single isomer, unassigned) [Compound 39b]",–,–,–,–,ΔTm at 500 µM [1]: 10.5 °C; ΔTm at 500 µM [2]: 3.7 °C; ΔTm at 500 µM [3]: 8.9 °C; ΔTm at 500 µM [4]: 13.1 °C
"O=c1c2ncn([C@@H]3O[C@@H]4COP(=O)(S)O[C@H]5[C@@H](O)[C@H](n6cc7c8c(ncnc86)NCCC7)O[C@@H]5COP(=O)(S)O[C@@H]3[C@@H]4O)c2ncn1CCO (single isomer, unassigned) [Compound 6b]",11.3 °C,3.4 °C,8.4 °C,12.9 °C,–
"O=c1c2ncn([C@@H]3O[C@@H]4COP(=O)(S)O[C@H]5[C@@H](F)[C@H](n6cc7c8c(ncnc86)NCCC7)O[C@@H]5COP(=O)(S)O[C@@H]3[C@@H]4O)c2ncn1CCO (single isomer, unassigned) [Compound 34b]",14.0 °C,6.5 °C,12.0 °C,16.7 °C,–
